Results from US20260028390A1, “ALPHA1-ANTITRYPSIN FOR USE IN THE TREATMENT OF DISEASES OR DISORDERS OF THE NERVOUS SYSTEM SUCH AS CHRONIC INFLAMMATORY DEMYELINATING POLYNEUROPATHY” (Ageronix SA, priority 2022, published 2026).
Values joined by “and” are separate entries in the source; they are usually repeats but may differ in a detail not shown here. Equal entries are not always repeated.

Key:
plasma TNFα = experiment: Plasma TNFα quantification, CIDP mouse model; format: in vivo; conditions: for Plasma TNFα concentration (Mean ± SD): CIDP mice; for TNFα conc: per animal, listed as hAAT
Description: (§1) C57BL/6 mice were received at 8 weeks of age and housed under controlled conditions for the duration of the study. Three groups of 4 animals each were assigned to the following subcutaneous treatments twice daily at 7:00 AM and 7:00 PM for 2 weeks, from 20 to 35 days after the start of disease induction: • Wild type (WT) mice receiving the vehicle, 0.9% NaCl (positive control) • CIDP mice receiving the vehicle, 0.9% NaCl (negative control) • CIDP mice receiving human AAT (AAT), 50 mg/kg per injection
(§2) On the day preceding disease induction (Day 1), on the first (Day 20) and on the last (Day 35) treatment day, animals were subjected to blood samplings for the determination of neurofilament light chain (NfL), tumour necrosing factor alpha (TNFα) and TMPRSS5 levels, as described in FIG. 20. In addition, plasma levels of AAT were evaluated on the last treatment day.

plasma NfL = experiment: Plasma NfL quantification, CIDP mouse model; format: in vivo; conditions: for Plasma NfL, Mean Diff., CIDP + vehicle vs. CIDP + hAAT / Plasma NfL, Mean Diff., Sham negative control vs. CIDP + hAAT: Bonferroni's multiple comparisons test; for Plasma NfL concentration (Mean ± SD): CIDP mice; for NfL conc: per animal, listed as hAAT
Description: as §1, §2

[1] = Day 20, before compound treatment
[2] = Day 20 (before compound treatment)

Substance: alpha1-antitrypsin (AAT) protein
- plasma TNFα concentration compared to the CIDP+vehicle treated group (plasma TNFα; CIDP + AAT, day 35): significant decrease
- Plasma TNFα concentration (Mean ± SD) (plasma TNFα; Day 1): 138.46 ± 18.58 pg/mL
- Plasma TNFα concentration (Mean ± SD) (plasma TNFα; Day 20): 1397.62 ± 330.96 pg/mL
- Plasma TNFα concentration (Mean ± SD) (plasma TNFα; Day 35): 1046.73 ± 144.47 pg/mL
- Plasma TNFα, Mean Diff., CIDP + vehicle vs. CIDP + hAAT (Bonferroni's multiple comparisons test) (plasma TNFα; [1]): −187.9
- Plasma TNFα, Significant?, CIDP + vehicle vs. CIDP + hAAT (Bonferroni's multiple comparisons test) (plasma TNFα; [1]): No
- Plasma TNFα, Mean Diff., CIDP + vehicle vs. CIDP + hAAT (Bonferroni's multiple comparisons test) (plasma TNFα; Day 35): 385.1
- TNFα conc, group MEAN (plasma TNFα; Day 1): 138.46 pg/mL
- TNFα conc, group MEAN (plasma TNFα; Day 20): 1397.62 pg/mL
- TNFα conc, group MEAN (plasma TNFα; Day 35): 1046.73 pg/mL
- TNFα conc (plasma TNFα; Day 1 (before model induction)): 125.451 pg/mL and 165.501 pg/mL and 135.780 pg/mL and 127.127 pg/mL
- TNFα conc (plasma TNFα; [2]): 1705.849 pg/mL and 1029.281 pg/mL and 1208.445 pg/mL and 1646.907 pg/mL
- TNFα conc (plasma TNFα; Day 35): 910.997 pg/mL and 1161.216 pg/mL and 933.130 pg/mL and 1181.571 pg/mL
- Plasma NfL, Mean Diff., CIDP + vehicle vs. CIDP + hAAT (plasma NfL; Day 1): 0.04828
- Plasma NfL, Mean Diff., Sham negative control vs. CIDP + hAAT (plasma NfL; Day 1): 0.01878
- Plasma NfL, Mean Diff., CIDP + vehicle vs. CIDP + hAAT (plasma NfL; Day 20): 0.2088
- Plasma NfL, Mean Diff., Sham negative control vs. CIDP + hAAT (plasma NfL; Day 20): -2.85 ng/mL
- Plasma NfL, Mean Diff., CIDP + vehicle vs. CIDP + hAAT (plasma NfL; Day 35): 1.01 ng/mL
- Plasma NfL, Mean Diff., Sham negative control vs. CIDP + hAAT (plasma NfL; Day 35): -1.88 ng/mL
- plasma NfL concentration compared to the CIDP+vehicle treated group (plasma NfL; CIDP + AAT, day 35): significant decrease
- Plasma NfL concentration (Mean ± SD) (plasma NfL; Day 1): 0.29 ± 0.11 ng/mL
- Plasma NfL concentration (Mean ± SD) (plasma NfL; Day 20): 3.12 ± 0.86 ng/mL
- Plasma NfL concentration (Mean ± SD) (plasma NfL; Day 35): 2.30 ± 0.27 ng/mL
- NfL conc, group MEAN (plasma NfL; Day 1): 0.29 ng/mL
- NfL conc, group MEAN (plasma NfL; Day 20): 3.12 ng/mL
- NfL conc, group MEAN (plasma NfL; Day 35): 2.30 ng/mL
- NfL conc (plasma NfL; Day 1 (before model induction)): 0.3654 ng/mL and 0.2865 ng/mL and 0.3798 ng/mL and 0.1412 ng/mL
- NfL conc (plasma NfL; [2]): 3.7596 ng/mL and 2.7654 ng/mL and 3.8846 ng/mL and 2.0831 ng/mL
- NfL conc (plasma NfL; Day 35): 2.4447 ng/mL and 1.9017 ng/mL and 2.3497 ng/mL and 2.5056 ng/mL
